Paper PMC9781020, “Anti-Mycobacterial N-(2-Arylethyl)quinolin-3-amines Inspired by Marine Sponge-Derived Alkaloid” (Molecules, 2022)
Values after ≈ are worked out from the molar mass of the structure shown. Where two headings read alike, the source gives them in different places.

Experiments:
M. bovis BCG = test: microbe, parasite or virus in culture; format: cell-based, Mycobacterium bovis BCG Pasteur; conditions: for MIC: Mycobacterium tuberculosis variant bovis BCG, BCG; for anti-mycobacterial activity (in words): M. bovis BCG
[1] = Cytotoxicity against HUVECs (WST-8); format: cell-based, human; conditions: human, HUVECs (human umbilical vein endothelial cells), 72 h
Protocol: (§1) HUVECs (5 × 10^5 cells/vial) was purchased from Kurabo Inc. and grown in HuMedia-EG2 medium with growth supplements (Kurabo Inc., Osaka, Japan). HUVECs in the culture medium was plated into each well of 96-well plates (2 × 10^3 cells/well/100 µL). After 24 h, the serially diluted compounds, which were dissolved in the medium containing no more than 0.5% EtOH, were added, and then the plates were incubated for an additional 72 h in a humidified atmosphere of 5% CO2 at 37 °C. The cell proliferation was detected by WST-8 colorimetric reagent (Nacalai Tesque, Inc., Kyoto, Japan). The IC50 value was determined by linear interpolation from the growth inhibition curve.

HUVECs = test: Cytotoxicity against HUVECs (WST-8); format: cell-based, human
Protocol: as §1

## C#CCCNc1cnc2ccccc2c1 [Compound 46, N-(But-3-yn-1-yl)quinolin-3-amine]
M. bovis BCG; 168 h, read-out: MIC (Aerobic)
  MIC: > 200 µM
M. bovis BCG; 336 h, read-out: MIC (Hypoxic)
  MIC: > 200 µM
[1]
  IC50 at 72 h: 53 µM

## O=c1c(NCCc2ccccc2)c[nH]c2ccccc12 [Compound 35, 3-(Phenethylamino)quinolin-4(1H)-one]
M. bovis BCG
  anti-mycobacterial activity (in words): no anti-mycobacterial or cytotoxic activity
M. bovis BCG; 168 h, read-out: MIC (Aerobic)
  MIC: > 200 µM
M. bovis BCG; 336 h, read-out: MIC (Hypoxic)
  MIC: > 200 µM
[1]
  IC50 at 72 h: > 100 µM
HUVECs
  cytotoxicity (in words): no anti-mycobacterial or cytotoxic activity

## O=C(Cc1ccccc1)Nc1cnc2ccccc2c1 [Compound 36, 2-Phenyl-N-(quinolin-3-yl)acetamide]
M. bovis BCG
  anti-mycobacterial activity (in words): significantly weakened anti-mycobacterial activity
M. bovis BCG; 168 h, read-out: MIC (Aerobic)
  MIC: 100 µM (≈ 26.2 µg/mL)
M. bovis BCG; 336 h, read-out: MIC (Hypoxic)
  MIC: 100 µM (≈ 26.2 µg/mL)
[1]
  IC50 at 72 h: 4.9 µM

## C#CCN(CCc1ccccc1)c1cnc2ccccc2c1 [Compound 38, N-Phenethyl-N-(prop-2-yn-1-yl)quinolin-3-amine]
M. bovis BCG
  anti-mycobacterial activity (in words): significantly weakened anti-mycobacterial activity
M. bovis BCG; 168 h, read-out: MIC (Aerobic)
  MIC: 100 µM (≈ 28.6 µg/mL)
M. bovis BCG; 336 h, read-out: MIC (Hypoxic)
  MIC: 100 µM (≈ 28.6 µg/mL)
[1]
  IC50 at 72 h: 18 µM

## c1ccc(CCNc2cccnc2)cc1 [Compound 8, N-Phenethylpyridin-3-amine]
M. bovis BCG
  anti-mycobacterial activity (in words): weak anti-mycobacterial activity
M. bovis BCG; 168 h, read-out: MIC (Aerobic)
  MIC: 200 µM (≈ 39.7 µg/mL)
M. bovis BCG; 336 h, read-out: MIC (Hypoxic)
  MIC: 200 µM (≈ 39.7 µg/mL)
[1]
  IC50 at 72 h: > 100 µM

## c1ccc2ncc(NCCC3CCCCC3)cc2c1 [Compound 42, N-(2-Cyclohexylethyl)quinolin-3-amine]
M. bovis BCG; 168 h, read-out: MIC (Aerobic)
  MIC: 50 µM (≈ 12.7 µg/mL)
M. bovis BCG; 336 h, read-out: MIC (Hypoxic)
  MIC: 100 µM (≈ 25.4 µg/mL)
[1]
  IC50 at 72 h: 15 µM

## COC1=CC(=O)c2cc(NCCc3ccccc3)cnc2C1=O [Compound 32, 7-Methoxy-3-(phenethylamino)quinoline-5,8-dione]
M. bovis BCG
  anti-mycobacterial activity (in words): weakened anti-mycobacterial activity
M. bovis BCG; 168 h, read-out: MIC (Aerobic)
  MIC: 25 µM (≈ 7.71 µg/mL)
M. bovis BCG; 336 h, read-out: MIC (Hypoxic)
  MIC: 50 µM (≈ 15.4 µg/mL)
[1]
  IC50 at 72 h: < 1 µM
HUVECs
  cytotoxicity (in words): enhanced cytotoxicity

## c1ccc(CCNc2cnc3ccccc3c2)cc1 [Compound 6, N-Phenethylquinolin-3-amine]
M. bovis BCG; 168 h, read-out: MIC (Aerobic)
  MIC: 6.25 µM (≈ 1.55 µg/mL)
M. bovis BCG; 336 h, read-out: MIC (Hypoxic)
  MIC: 50 µM (≈ 12.4 µg/mL)
[1]
  IC50 at 72 h: 18 µM

## c1ccc2cc(CCNc3cnc4ccccc4c3)ccc2c1 [Compound 44, N-(2-(Naphthalen-2-yl)ethyl)quinolin-3-amine]
M. bovis BCG
  anti-mycobacterial activity (in words): good anti-mycobacterial activity under aerobic and hypoxic conditions
M. bovis BCG; 168 h, read-out: MIC (Aerobic)
  MIC: 6.25 µM (≈ 1.86 µg/mL)
M. bovis BCG; 336 h, read-out: MIC (Hypoxic)
  MIC: 12.5 µM (≈ 3.73 µg/mL)
[1]
  IC50 at 72 h: 13 µM

## NNC(=O)c1ccncc1 [isoniazid, reference compound]
M. bovis BCG; 168 h, read-out: MIC (Aerobic)
  MIC: 0.39 µM (≈ 0.0535 µg/mL)
M. bovis BCG; 336 h, read-out: MIC (Hypoxic)
  MIC: > 200 µM

## CN(CCc1ccccc1)c1cnc2ccccc2c1 [Compound 37, N-Methyl-N-phenethylquinolin-3-amine]
M. bovis BCG
  anti-mycobacterial activity (in words): antibacterial activity comparable to that of 6
M. bovis BCG; 168 h, read-out: MIC (Aerobic)
  MIC: 6.25 µM (≈ 1.64 µg/mL)
M. bovis BCG; 336 h, read-out: MIC (Hypoxic)
  MIC: 50 µM (≈ 13.1 µg/mL)
[1]
  IC50 at 72 h: 16 µM

## COc1cc2ccnc(C(=O)NCCc3ccccc3)c2cc1OC [Compound 5, 6,7-Dimethoxy-N-phenethylisoquinoline-1-carboxamide]
M. bovis BCG
  anti-mycobacterial activity (in words): weak anti-mycobacterial activity
M. bovis BCG; 168 h, read-out: MIC (Aerobic)
  MIC: 100 µM (≈ 33.6 µg/mL)
M. bovis BCG; 336 h, read-out: MIC (Hypoxic)
  MIC: 200 µM (≈ 67.3 µg/mL)
[1]
  IC50 at 72 h: 11.9 µM

## COC1=Cc2ccnc3c(NCCc4ccccc4)cnc(c23)C1=O [Compound 1, 3-(phenethylamino)demethyl(oxy)aaptamine, reference compound]
M. bovis BCG; 168 h, read-out: MIC (Aerobic)
  MIC: 1.56 µM (≈ 0.517 µg/mL)
M. bovis BCG; 336 h, read-out: MIC (Hypoxic)
  MIC: 1.56 µM (≈ 0.517 µg/mL)
[1]
  IC50 at 72 h: 1.36 µM

## c1csc(CCNc2cnc3ccccc3c2)c1 [Compound 45, N-(2-(Thiophen-2-yl)ethyl)quinolin-3-amine]
M. bovis BCG; 168 h, read-out: MIC (Aerobic)
  MIC: 6.25 µM (≈ 1.59 µg/mL)
M. bovis BCG; 336 h, read-out: MIC (Hypoxic)
  MIC: 50 µM (≈ 12.7 µg/mL)
[1]
  IC50 at 72 h: 14 µM

## c1ccc2ncc(NCCc3cccc4ccccc34)cc2c1 [Compound 43, N-(2-(Naphthalen-1-yl)ethyl)quinolin-3-amine]
M. bovis BCG
  anti-mycobacterial activity (in words): markedly reduced anti-mycobacterial activity
M. bovis BCG; 168 h, read-out: MIC (Aerobic)
  MIC: 100 µM (≈ 29.8 µg/mL)
M. bovis BCG; 336 h, read-out: MIC (Hypoxic)
  MIC: > 200 µM
[1]
  IC50 at 72 h: 11 µM

## O=C1C=CC(=O)c2ncc(NCCc3ccccc3)cc21 [Compound 25, 3-(Phenethylamino)quinoline-5,8-dione]
M. bovis BCG
  anti-mycobacterial activity (in words): weakened anti-mycobacterial activity
M. bovis BCG; 168 h, read-out: MIC (Aerobic)
  MIC: 100 µM (≈ 27.8 µg/mL)
M. bovis BCG; 336 h, read-out: MIC (Hypoxic)
  MIC: > 200 µM
[1]
  IC50 at 72 h: < 1 µM
HUVECs
  cytotoxicity (in words): enhanced cytotoxicity

## c1ccc(CCOc2cnc3ccccc3c2)cc1 [Compound 40, 3-Phenethoxyquinoline]
M. bovis BCG
  anti-mycobacterial activity (in words): significantly weakened anti-mycobacterial activity
M. bovis BCG; 168 h, read-out: MIC (Aerobic)
  MIC: 50 µM (≈ 12.5 µg/mL)
M. bovis BCG; 336 h, read-out: MIC (Hypoxic)
  MIC: 100 µM (≈ 24.9 µg/mL)
[1]
  IC50 at 72 h: 11 µM

## c1ccc(CCNc2cncc3cccnc23)cc1 [Compound 7, N-Phenethyl-1,6-naphthyridin-8-amine]
M. bovis BCG
  anti-mycobacterial activity (in words): weak anti-mycobacterial activity
M. bovis BCG; 168 h, read-out: MIC (Aerobic)
  MIC: 100 µM (≈ 24.9 µg/mL)
M. bovis BCG; 336 h, read-out: MIC (Hypoxic)
  MIC: 50 µM (≈ 12.5 µg/mL)
[1]
  IC50 at 72 h: 8.1 µM
